The values that follow come from US11155517B2, “4-substituted phenylamine derivatives and their use to protect crops by fighting undesired phytopathogenic micoorganisms” (PI INDUSTRIES LTD., priority 2016, dated 2021).

Common to all, as to type: cell-based
One assay has as its system Septoria lycopersici. Put plainly: Septoria lycopersici (leaf spot of tomato) in vitro test, radial growth on Potato Dextrose Agar. The settings on record: 168 h, seven days, 25° C., read-out: % control compared to the untreated check (radial growth).
For the next assay, the system named is Colletotrichum capsici. Put plainly: Colletotrichum capsici (anthracnose) in vitro test, radial growth on Potato Dextrose Agar. The conditions noted are these: Colletotrichum truncatum, 168 h; 300 ppm; seven days, 25° C.; read-out: % control compared to the untreated check (radial growth).
For a further assay, the system named is Rhizoctonia solani. Put plainly: Rhizoctonia solani (rice sheath blight/potato black scurf) in vitro test, radial growth on Potato Dextrose Agar. The settings on record: 168 h, 300 ppm, seven days, 25° C., read-out: % control compared to the untreated check (radial growth).
The subject of another assay is Alternaria solani. Put plainly: Alternaria solani (early blight of tomato/potato) in vitro test, radial growth on Potato Dextrose Agar. The conditions noted are these: 168 h, 300 ppm, seven days, 25° C., read-out: % control compared to the untreated check (radial growth).
The subject of the next assay is Pyricularia oryzae. Put plainly: microbe, parasite or virus in culture. The settings on record: 168 h, read-out: % control compared to the untreated check (radial growth).
For a further assay, the system named is Botrytis cinerea. Put plainly: Botrytis cinerea (gray mold) in vitro test, radial growth on Potato Dextrose Agar. The settings on record: 168 h, 300 ppm, seven days, 22° C., read-out: % (control) compared to the untreated check (radial growth).

On to `CCN(C)C=Nc1cc(F)c(Cc2ccccc2C)cc1F` [Compound 254, N′-(2,5-difluoro-4-(2-methylbenzyl)phenyl)-N-ethyl-N-methylformimidamide], for which the inhibition of growth at 300 ppm in the assay with Septoria lycopersici is > 70%; in the assay with Colletotrichum capsici it was > 80%; with Rhizoctonia solani it was > 80%; in the assay with Alternaria solani, > 75%; in the assay with Pyricularia oryzae, > 75%; in the assay with Botrytis cinerea it was > 80%.

`Cc1cc(N=CN2CCSCC2)c(C)cc1Cc1ccccc1Cl` [Compound 86, N-(4-(2-chlorobenzyl)-2,5-dimethylphenyl)-1-thiomorpholinomethanimine]: the inhibition of growth at 300 ppm is > 70% in the assay on Septoria lycopersici; > 80% with Colletotrichum capsici; > 80% in the assay with Rhizoctonia solani; > 75% in the assay with Alternaria solani; > 75% in the assay on Pyricularia oryzae; > 80% in the assay with Botrytis cinerea.

With `CCN(C)C=Nc1cc(C)c(Cc2cccc(F)c2Cl)cc1C` [Compound 131, N′-(4-(2-chloro-3-fluorobenzyl)-2,5-dimethylphenyl)-N-ethyl-N-methylformimidamide], the inhibition of growth at 300 ppm in the assay with Septoria lycopersici was > 70%; in the assay on Colletotrichum capsici, > 80%; in the assay on Rhizoctonia solani, > 80%; with Alternaria solani, > 75%; with Pyricularia oryzae, > 75%; in the assay with Botrytis cinerea, > 80%.

Turning to `CCN(C)C=Nc1cc(F)c(Cc2ccc(C)cc2)cc1F` [Compound 245, N′-(2,5-difluoro-4-(4-methylbenzyl)phenyl)-N-ethyl-N-methylformimidamide], the inhibition of growth at 300 ppm was > 70% in the assay on Septoria lycopersici; > 80% in the assay with Colletotrichum capsici; > 80% with Rhizoctonia solani; > 75% in the assay on Alternaria solani; > 75% in the assay with Pyricularia oryzae; > 80% with Botrytis cinerea.

On to `CCN(C)C=Nc1cc(F)c(Cc2cccc(C)c2)cc1F` [Compound 244, N′-(2,5-difluoro-4-(3-methylbenzyl)phenyl)-N-ethyl-N-methylformimidamide], for which the inhibition of growth at 300 ppm in the assay with Septoria lycopersici is > 70%; with Rhizoctonia solani, > 80%; with Alternaria solani, > 75%; in the assay on Pyricularia oryzae, > 75%; with Botrytis cinerea, > 80%.

With `Cc1cc(N=CN2CCOCC2)c(C)cc1Cc1ccc(F)c(Cl)c1` [Compound 34, N-(4-(3-chloro-4-fluorobenzyl)-2,5-dimethylphenyl)-1-morpholinomethanimine], the inhibition of growth at 300 ppm was > 70% in the assay with Septoria lycopersici; > 80% in the assay with Colletotrichum capsici; > 80% in the assay on Rhizoctonia solani; > 75% in the assay on Alternaria solani; > 75% in the assay with Pyricularia oryzae.

Take `CCN(C)C=Nc1cc(C)c(Cc2cc(C(F)(F)F)cc(Cl)c2F)cc1C` [Compound 134, N′-(4-(3-chloro-2-fluoro-5-(trifluoromethyl)benzyl)-2,5-dimethylphenyl)-N-ethyl-N-methylformimidamide]: the inhibition of growth at 300 ppm with Septoria lycopersici is > 70%; in the assay on Colletotrichum capsici it was > 80%; with Rhizoctonia solani it was > 80%; in the assay on Alternaria solani, > 75%; in the assay on Pyricularia oryzae it was > 75%; in the assay on Botrytis cinerea, > 80%.

As to `CCN(C)C=Nc1cc(C)c(Cc2cc(C(F)(F)F)ccc2Cl)cc1Cl` [Compound 168, N′-(2-chloro-4-(2-chloro-5-(trifluoromethyl)benzyl)-5-methylphenyl)-N-ethyl-N-methylformimidamide], the inhibition of growth at 300 ppm is > 70% in the assay with Septoria lycopersici; > 80% in the assay with Colletotrichum capsici; > 80% with Rhizoctonia solani; > 75% with Alternaria solani; > 75% in the assay with Pyricularia oryzae; > 80% with Botrytis cinerea.

With `CCN(C)C=Nc1cc(C)c(Cc2ccc(Cl)c(Cl)c2)cc1Cl` [Compound 20, N′-(2-chloro-4-(3,4-dichlorobenzyl)-5-methylphenyl)-N-ethyl-N-methylformimidamide], the inhibition of growth at 300 ppm in the assay on Septoria lycopersici was > 70%; with Colletotrichum capsici, > 80%; in the assay on Rhizoctonia solani it was > 80%; in the assay with Alternaria solani it was > 75%; in the assay with Pyricularia oryzae it was > 75%.

In the case of `CCN(C)C=Nc1ccc(Cc2ccccc2Cl)cc1` [Compound 164, N′-(4-(2-chlorobenzyl)phenyl)-N-ethyl-N-methylformimidamide], the inhibition of growth at 300 ppm was > 70% in the assay with Septoria lycopersici; > 80% in the assay with Colletotrichum capsici; > 80% in the assay with Rhizoctonia solani; > 75% with Alternaria solani; > 75% in the assay on Pyricularia oryzae; > 80% with Botrytis cinerea.

On to `CCN(C)C=Nc1cc(C)c(Cc2ccccc2OC(F)(F)F)cc1C` [Compound 116, N′-(2,5-dimethyl-4-(2-(trifluoromethoxy)benzyl)phenyl)-N-ethyl-N-methylformimidamide], for which the inhibition of growth at 300 ppm with Septoria lycopersici is > 70%; in the assay with Colletotrichum capsici, > 80%; in the assay on Rhizoctonia solani, > 80%; with Alternaria solani it was > 75%; with Pyricularia oryzae, > 75%; with Botrytis cinerea it was > 80%.

`CCN(C)C=Nc1cc(C)c(Cc2cccc(F)c2)cc1S(C)(=O)=O` [Compound 216, N-ethyl-N′-(4-(3-fluorobenzyl)-5-methyl-2-(methylsulfonyl)phenyl)-N-methylformimidamide]: the inhibition of growth at 300 ppm with Septoria lycopersici was > 70%; in the assay with Rhizoctonia solani, > 80%; in the assay on Alternaria solani, > 75%; in the assay with Pyricularia oryzae, > 75%.

As for `CCN(C)C=Nc1cc(C(F)(F)F)c(Cc2ccccc2C)cc1F` [Compound 228, N-ethyl-N′-(2-fluoro-4-(2-methylbenzyl)-5-(trifluoromethyl)phenyl)-N-methylformimidamide], the inhibition of growth at 300 ppm with Septoria lycopersici is > 70%; with Rhizoctonia solani, > 80%; in the assay on Alternaria solani, > 75%; in the assay with Pyricularia oryzae it was > 75%.

Consider `Cc1cc(N=CN2CCSCC2)c(C)cc1Cc1ccccc1F` [Compound 85, N-(4-(2-fluorobenzyl)-2,5-dimethylphenyl)-1-thiomorpholinomethanimine], for which the inhibition of growth at 300 ppm with Colletotrichum capsici was > 80%; in the assay on Rhizoctonia solani it was > 80%; in the assay on Alternaria solani, > 75%; in the assay with Pyricularia oryzae it was > 75%; in the assay with Botrytis cinerea it was > 80%.

Regarding `Cc1cc(N(C#N)C=N)c(C)cc1Cc1ccccc1F` [Compound 64, N-cyano-N-(4-(2-fluorobenzyl)-2,5-dimethylphenyl)formimidamide], the inhibition of growth at 300 ppm in the assay with Septoria lycopersici is > 70%; with Pyricularia oryzae, > 75%.

As for `CCN(C)C=Nc1cc(C)c(Cc2cc(C)cc(F)c2)cc1Cl` [Compound 140, N′-(2-chloro-4-(3-fluoro-5-methylbenzyl)-5-methylphenyl)-N-ethyl-N-methylformimidamide], the inhibition of growth at 300 ppm in the assay on Colletotrichum capsici is > 80%; in the assay with Rhizoctonia solani it was > 80%; in the assay on Alternaria solani it was > 75%; in the assay with Pyricularia oryzae it was > 75%; in the assay with Botrytis cinerea, > 80%.

Regarding `CCN(C)C=Nc1cc(C#N)c(Cc2ccccc2C)cc1C` [Compound 248, N′-(5-cyano-2-methyl-4-(2-methylbenzyl)phenyl)-N-ethyl-N-methylformimidamide], the inhibition of growth at 300 ppm is > 70% with Septoria lycopersici; > 80% in the assay on Rhizoctonia solani; > 75% with Alternaria solani; > 75% with Pyricularia oryzae; > 80% in the assay on Botrytis cinerea.

Turning to `CCN(C)C=Nc1cc(C)c(Cc2c(Cl)cccc2Cl)cc1Cl` [Compound 195, N′-(2-chloro-4-(2,6-dichlorobenzyl)-5-methylphenyl)-N-ethyl-N-methylformimidamide], the inhibition of growth at 300 ppm was > 70% in the assay with Septoria lycopersici; > 80% in the assay on Colletotrichum capsici; > 75% with Alternaria solani; > 75% in the assay with Pyricularia oryzae; > 80% in the assay on Botrytis cinerea.

In the case of `CCN(C)C=Nc1cc(C)c(Cc2ccc(Cl)c(F)c2)cc1Cl` [Compound 95, N′-(2-chloro-4-(4-chloro-3-fluorobenzyl)-5-methylphenyl)-N-ethyl-N-methylformimidamide], the inhibition of growth at 300 ppm with Colletotrichum capsici was > 80%; in the assay on Rhizoctonia solani, > 80%; in the assay on Alternaria solani it was > 75%; with Pyricularia oryzae, > 75%; with Botrytis cinerea, > 80%.

Take `CCN(C)C=Nc1cc(C(F)(F)F)c(Cc2cccc(Cl)c2)cc1F` [Compound 229, N′-(4-(3-chlorobenzyl)-2-fluoro-5-(trifluoromethyl)phenyl)-N-ethyl-N-methylformimidamide]: the inhibition of growth at 300 ppm with Septoria lycopersici is > 70%; in the assay on Rhizoctonia solani it was > 80%; in the assay with Alternaria solani it was > 75%; in the assay with Pyricularia oryzae, > 75%.

As for `CCN(C)C=Nc1cc(F)c(Cc2cccc(Cl)c2)cc1F` [Compound 243, N′-(4-(3-chlorobenzyl)-2,5-difluorophenyl)-N-ethyl-N-methylformimidamide], the inhibition of growth at 300 ppm was > 70% in the assay on Septoria lycopersici; > 80% with Colletotrichum capsici; > 80% in the assay with Rhizoctonia solani; > 75% with Alternaria solani; > 75% with Pyricularia oryzae.
